Experimental data published in ChEMBL document CHEMBL4837187, “Antimicrobial Benzyltetrahydroisoquinoline-Derived Alkaloids from the Leaves of Doryphora aromatica” (2021).

Columns and labels:
Assay type in all cases: functional
[1] = test system: Mycolicibacterium smegmatis; assay: Antimicrobial activity against Mycobacterium smegmatis MC2 155 ATCC […] assessed as microbial growth inhibition incubated for 16 hrs under aerobic condition by microplate reader assay
[2] = test system: Escherichia coli; assay: Antimicrobial activity against Escherichia coli assessed as microbial growth inhibition incubated for 16 hrs under aerobic condition by microplate reader assay
[3] = test system: Staphylococcus aureus; assay: Antimicrobial activity against Staphylococcus aureus assessed as microbial growth inhibition incubated for 16 hrs under aerobic condition by microplate reader assay
[4] = test system: Staphylococcus aureus; assay: Antimicrobial activity against methicillin-resistant Staphylococcus aureus clinical isolate 1 assessed as microbial growth inhibition incubated for 16 hrs under aerobic condition by microplate reader assay
[5] = test system: Staphylococcus aureus; assay: Antimicrobial activity against methicillin-resistant Staphylococcus aureus clinical isolate 2 assessed as microbial growth inhibition incubated for 16 hrs under aerobic condition by microplate reader assay
[6] = test system: Staphylococcus aureus; assay: Antimicrobial activity against methicillin-resistant Staphylococcus aureus clinical isolate 3 assessed as microbial growth inhibition incubated for 16 hrs under aerobic condition by microplate reader assay
[7] = test system: Staphylococcus aureus; assay: Antimicrobial activity against methicillin-resistant Staphylococcus aureus clinical isolate 4 assessed as microbial growth inhibition incubated for 16 hrs under aerobic condition by microplate reader assay
[8] = test system: Staphylococcus aureus; assay: Antimicrobial activity against methicillin-resistant Staphylococcus aureus clinical isolate 5 assessed as microbial growth inhibition incubated for 16 hrs under aerobic condition by microplate reader assay
[9] = test system: Mycobacterium tuberculosis; assay: Antimicrobial activity against Mycobacterium tuberculosis MC2 6220 BSL2MIC assessed as microbial growth inhibition incubated for 16 hrs under aerobic condition by microplate reader assay
[10] = test system: Mycobacterium tuberculosis; assay: Antimicrobial activity against Mycobacterium tuberculosis H37Rv assessed as microbial growth inhibition incubated for 16 hrs under aerobic condition by microplate reader assay
[11] = test system: Mycobacterium tuberculosis; assay: Antimicrobial activity against Mycobacterium tuberculosis MC2 6220 BSL2 assessed as microbial growth inhibition at 6.25 uM incubated for 16 hrs under aerobic condition by microplate reader assay relative to control; settings: read-out: GI

COc1cc2cc[n+](C)c(O)c2cc1OC
MIC [1]: > 100 µM
MIC [2]: > 100 µM
MIC [3]: > 100 µM

COc1cc2cc[n+](C)c(Cc3ccc(Oc4cc(Cc5c6cc(OC)c(OC)cc6cc[n+]5C)ccc4OC)cc3)c2cc1OC
MIC [1]: 158 µM
MIC [2]: 39.6 µM
MIC [3]: 9.9 µM
MIC [4]: 9.9 µM
MIC [5]: 39.6 µM
MIC [6]: 39.6 µM
MIC [7]: 9.9 µM
MIC [8]: 9.9 µM

COc1cc2cc[n+](C)c(Cc3ccc(Oc4cc(Cc5c6cc(OC)c(OC)cc6cc[n+]5C)ccc4O)cc3)c2cc1OC
MIC [1]: > 100 µM
MIC [2]: > 100 µM
MIC [3]: > 100 µM

COc1cc2cc[n+](C)c(Cc3ccc(OC)c(Oc4ccc(C=O)cc4)c3)c2cc1OC
MIC [1]: > 100 µM
MIC [2]: > 100 µM
MIC [3]: > 100 µM

COc1cc2c(cc1OC)[C@@H](Cc1ccc(Oc3cc(Cc4c5cc(OC)c(OC)cc5cc[n+]4C)ccc3OC)cc1)N(C)CC2
MIC [1]: 39.4 µM
MIC [9]: 12.5 µM
MIC [10]: > 100 µM
MIC [2]: 158 µM
MIC [3]: 39.4 µM
MIC [4]: 39.4 µM
MIC [5]: 39.4 µM
MIC [6]: 19.7 µM
MIC [7]: 39.4 µM
MIC [8]: 19.7 µM
inhibition of growth at 6.25 µM [11]: 70%
